Test results: publication PMC3324983 (ACS Medicinal Chemistry Letters, 2012)

Legend:
tsFT210 cells = test: Cell cycle analysis of G2-synchronized tsFT210 cells; format: cell-based, mouse; conditions: 5–50 μM, 4 h at 32 °C, compared with the vehicle control
[1] = test system: CDK1 phosphorylation in tsFT210 cells; test: Western blotting of CDK1 phosphorylation status in tsFT210 cells; format: cell-based, mouse; conditions: 5–50 μM, permissive temperature 32 °C
[2] = test system: ROS level in tsFT210 cells; test: Measurement of ROS in tsFT210 cells with H2DCFDA; conditions: 50 μM, 30 min at 32 °C

## CCCCCCCCCCCCCCCC(NCc1ccccc1O)=C1C(=O)OC(CO)C1=O (stereo not drawn) [Compound 10d]
tsFT210 cells
  effect on G2/M arrest of tsFT210 cells after release: predominantly maintained the G2/M arrest of tsFT210 cells in a concentration-dependent manner
[1]
  inhibition of the dephosphorylation of CDK1: concentration dependently inhibited the dephosphorylation of CDK1
[2]
  change of H2DCFDA fluorescence intensity (ROS): did not induce a significant change

## CCCCCCCCCCCCCCCC(NCc1cccc(C)c1)=C1C(=O)OC(CO)C1=O (stereo not drawn) [Compound 8a]
tsFT210 cells
  effect on G2/M arrest of tsFT210 cells after release: had little effect on tsFT210 cells
[1]
  inhibition of the dephosphorylation of CDK1: did not inhibit the dephosphorylation of CDK1 even at 50 μM
[2]
  change of H2DCFDA fluorescence intensity (ROS): did not induce a significant change

## CCCCCCCCCCCCCCC/C(NCc1ccccc1)=C1/C(=O)OC(CO)C1=O (stereo not drawn) [Compound 7]
tsFT210 cells
  effect on G2/M arrest of tsFT210 cells after release: predominantly maintained the G2/M arrest of tsFT210 cells in a concentration-dependent manner
[1]
  inhibition of the dephosphorylation of CDK1: concentration dependently inhibited the dephosphorylation of CDK1
[2]
  change of H2DCFDA fluorescence intensity (ROS): did not induce a significant change
